Reference: US20110172147A1, “NEUROPEPTIDE-2 RECEPTOR (Y-2R) AGONISTS” (priority 2009, published 2011)

What was measured:
hypothalamic slices = hypothalamic slices in vitro; cited from earlier work
hNPY2R [1] = target: T1, hNPY2R (Homo sapiens, UniProt P49146); experiment: CaFlux Assay (FLIPR), Y2R; assay type: cell-based; parameters: expressed in transfected cells; host or cells: HEK-293 stably transfected with G protein chimera Gαqi9
T1 sequence (P49146 1-381): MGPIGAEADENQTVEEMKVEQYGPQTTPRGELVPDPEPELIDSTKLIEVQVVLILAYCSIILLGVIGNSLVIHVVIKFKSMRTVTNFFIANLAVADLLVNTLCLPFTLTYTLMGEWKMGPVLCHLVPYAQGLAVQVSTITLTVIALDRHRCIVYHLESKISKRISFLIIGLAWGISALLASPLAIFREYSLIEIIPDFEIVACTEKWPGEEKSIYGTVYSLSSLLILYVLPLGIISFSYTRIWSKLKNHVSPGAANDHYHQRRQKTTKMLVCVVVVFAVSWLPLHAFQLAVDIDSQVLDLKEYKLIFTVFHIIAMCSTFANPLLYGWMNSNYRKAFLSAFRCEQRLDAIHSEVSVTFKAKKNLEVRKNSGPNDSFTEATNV
Procedure, shortened: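 Calcium flux read by FLIPR in HEK-293 clones co-expressing chimeric Gαqi9 and receptor; compounds in HBSS/20 mM HEPES/0.05% BSA. Baseline-subtracted peak fluorescence, monitored 100 s after addition, is reported relative to the positive control's maximal response.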

Y5R = target: T2, Y5R (Homo sapiens, UniProt Q15761); experiment: CaFlux Assay (FLIPR), Y5R; assay type: cell-based
T2 sequence (Q15761 1-445): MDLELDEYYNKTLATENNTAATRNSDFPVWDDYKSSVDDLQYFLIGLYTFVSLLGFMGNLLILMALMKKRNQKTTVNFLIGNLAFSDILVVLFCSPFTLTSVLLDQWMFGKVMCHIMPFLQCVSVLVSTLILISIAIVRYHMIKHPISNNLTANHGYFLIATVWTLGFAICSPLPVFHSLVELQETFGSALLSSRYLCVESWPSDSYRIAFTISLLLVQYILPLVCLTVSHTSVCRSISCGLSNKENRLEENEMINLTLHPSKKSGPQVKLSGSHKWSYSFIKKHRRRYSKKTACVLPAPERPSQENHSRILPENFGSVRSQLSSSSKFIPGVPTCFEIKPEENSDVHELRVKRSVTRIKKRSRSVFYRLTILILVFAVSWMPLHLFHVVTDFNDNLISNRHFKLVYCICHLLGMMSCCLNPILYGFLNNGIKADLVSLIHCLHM

hNPY2R [2] = target: T1, hNPY2R; experiment: cAMP Agonist Assay, HEK293/hNPY2R; assay type: cell-based; parameters: expressed in transfected cells; host or cells: HEK293/hNPY2R (G418 selection)
Procedure, shortened: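 HEK293/hNPY2R cells (10,000/well, overnight) stimulated 30 min at room temperature with compound plus 5 μM forskolin and 0.5 mM IBMX (1.1% DMSO final). Lysate cAMP measured by competitive chemiluminescent ELISA (AP conjugate, CSPD substrate); quadruplicates.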

Y4R = Y4R (Homo sapiens, UniProt P50391); experiment: CaFlux Assay (FLIPR), Y4R; assay type: cell-based
Chain of Y4R (P50391 whole entry): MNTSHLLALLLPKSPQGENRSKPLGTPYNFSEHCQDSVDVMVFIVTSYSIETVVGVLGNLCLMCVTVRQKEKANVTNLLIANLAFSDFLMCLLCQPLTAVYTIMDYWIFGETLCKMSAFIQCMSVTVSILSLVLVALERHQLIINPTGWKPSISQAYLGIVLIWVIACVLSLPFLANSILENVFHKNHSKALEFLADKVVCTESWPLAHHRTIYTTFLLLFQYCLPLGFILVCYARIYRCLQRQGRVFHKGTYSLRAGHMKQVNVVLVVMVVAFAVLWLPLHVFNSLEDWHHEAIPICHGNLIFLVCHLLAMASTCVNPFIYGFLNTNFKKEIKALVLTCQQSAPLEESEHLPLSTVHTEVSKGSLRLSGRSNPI

Y1R = target: T3, Y1R (Homo sapiens, UniProt P25929); experiment: CaFlux Assay (FLIPR), Y1R; assay type: cell-based
T3 sequence (P25929 1-384): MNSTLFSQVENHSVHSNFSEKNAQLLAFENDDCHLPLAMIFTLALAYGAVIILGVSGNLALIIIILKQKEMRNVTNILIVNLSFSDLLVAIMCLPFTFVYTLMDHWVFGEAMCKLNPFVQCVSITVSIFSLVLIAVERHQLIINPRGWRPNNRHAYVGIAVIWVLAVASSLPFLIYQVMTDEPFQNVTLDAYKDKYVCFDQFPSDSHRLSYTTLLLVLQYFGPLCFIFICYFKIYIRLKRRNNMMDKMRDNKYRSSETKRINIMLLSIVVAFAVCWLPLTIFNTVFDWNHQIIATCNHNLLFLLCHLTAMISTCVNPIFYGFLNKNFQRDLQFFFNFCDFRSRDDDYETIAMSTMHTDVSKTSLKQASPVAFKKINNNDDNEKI

| SMILES | NPY release (hypothalamic slices) | EC50 (hNPY2R [1]) [nM] | EC50 (Y5R) [nM] | EC50 (hNPY2R [2]) [nM] | EC50 (Y4R) [nM] | EC50 (Y1R) [nM] |
| --- | --- | --- | --- | --- | --- | --- |
| N=C(N)NCCC[C@H](NC(=O)CC1(CC(=O)N2CCN(C3c4ccccc4NC(=O)c4ccccc43)CC2)CCCC1)C(=O)NCCn1c(=O)n(-c2ccccc2)n(-c2ccccc2)c1=O (stereo partly drawn) [BIIE0246] | increases NPY release | – | – | – | – | – |
| CCCCCCCCCCCCCCCCCCCC(=O)N[C@@H](CCC(=O)N[C@@H](CCC(=O)N[C@H](C(=O)N[C@@H](CCCCNC(=O)CCOCCOCCOCCOCCOCCOCCOCCOCCOCCOCCOCCOCCOCCOCCOCCOCCOCCOCCOCCOCCOCCOCCOCCOC)C(=O)N1CCN(c2ccc3ncn(CC(=O)N[C@@H](CCCNC(N)=O)C(=O)N[C@@H](Cc4c[nH]cn4)C(=O)N[C@@H](Cc4ccc(O)cc4)C(=O)N[C@@H](CC(C)C)C(=O)N[C@@H](CC(N)=O)C(=O)N[C@@H](Cc4c[nH]c5ccccc45)C(=O)N[C@H](C(=O)N[C@H](C(=O)N[C@@H](CCCNC(=N)N)C(=O)N[C@@H](CCC(N)=O)C(=O)N(C)[C@@H](CCCNC(=N)N)C(=O)N[C@@H](Cc4ccc(O)cc4)C(N)=O)[C@@H](C)O)C(C)C)c(=O)c3c2)CC1)[C@@H](C)CC)C(=O)O)C(=O)O [Example 61] | – | 0.243 | > 6000 | 0.28 | > 6000 | > 6000 |
